Results reported in ChEMBL document CHEMBL1144235, “Aminostyrylbenzofuran derivatives as potent inhibitors for Abeta fibril formation” (Bioorg Med Chem Lett, 2008).

Target: Amyloid-beta precursor protein (Homo sapiens, UniProt P05067)
Assay: Inhibition of amyloid beta42 fibril formation by thioflavin T formation

Amyloid-beta precursor protein, sequence (P05067 whole entry): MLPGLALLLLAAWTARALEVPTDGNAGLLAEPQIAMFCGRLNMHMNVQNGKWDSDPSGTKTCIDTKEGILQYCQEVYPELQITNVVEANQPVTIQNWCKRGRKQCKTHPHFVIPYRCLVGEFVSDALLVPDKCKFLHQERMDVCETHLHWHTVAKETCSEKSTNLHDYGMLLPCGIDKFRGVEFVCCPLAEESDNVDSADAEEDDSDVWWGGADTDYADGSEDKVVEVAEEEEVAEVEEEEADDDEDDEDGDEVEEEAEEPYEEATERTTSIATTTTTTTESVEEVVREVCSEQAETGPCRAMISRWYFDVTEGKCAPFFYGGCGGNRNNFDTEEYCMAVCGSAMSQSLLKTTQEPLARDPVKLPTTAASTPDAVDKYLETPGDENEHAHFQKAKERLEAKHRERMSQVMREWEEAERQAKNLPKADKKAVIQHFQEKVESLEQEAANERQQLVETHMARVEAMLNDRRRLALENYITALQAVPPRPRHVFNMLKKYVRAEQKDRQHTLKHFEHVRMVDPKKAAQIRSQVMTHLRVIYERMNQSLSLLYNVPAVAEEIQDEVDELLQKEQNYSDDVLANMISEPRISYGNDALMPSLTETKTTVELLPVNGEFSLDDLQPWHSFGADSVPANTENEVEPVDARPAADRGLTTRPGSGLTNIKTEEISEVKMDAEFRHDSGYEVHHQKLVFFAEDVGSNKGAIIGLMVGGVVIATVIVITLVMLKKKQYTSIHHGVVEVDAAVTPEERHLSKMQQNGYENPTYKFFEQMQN

Row | Compound | IC50 [nM]
1 | Nc1ccc(/C=C/c2cc3cc(O)ccc3o2)cc1 | 2950
2 | CN(C)c1ccc(/C=C/c2cc3ccc(I)cc3o2)cc1 | 2800
3 | CN(C)c1ccc(/C=C/c2cc3ccc(O)cc3o2)cc1 | 3620
4 | CN(C)c1ccc(/C=C/c2cc3ccccc3o2)cc1 | 2300
5 | CN(C)c1ccc(/C=C/c2cc3ccc(F)cc3o2)cc1 | 2190
6 | CN(C)c1ccc(/C=C/c2cc3cc(F)ccc3o2)cc1 | 1980
7 | CNc1ccc(/C=C/c2cc3cc(O)ccc3o2)cc1 | 2160
8 | CN(C)c1ccc(/C=C/c2cc3ccc(Cl)cc3o2)cc1 | 3210
9 | Cc1ccc2cc(/C=C/c3ccc(N(C)C)cc3)oc2c1 | 3440
10 | COc1ccc2oc(/C=C/c3ccc(N)cc3)cc2c1 | 820
11 | COc1ccc2cc(/C=C/c3ccc(N)cc3)oc2c1 | 5440
12 | CN(C)c1ccc(/C=C/c2cc3ccc(Br)cc3o2)cc1 | 1340

Next, values leading:

Row | IC50 [nM] | Compound
13 | 800 | CNc1ccc(/C=C/c2cc3ccc(OC)cc3o2)cc1
14 | 160 | CN(C)c1ccc(/C=C/c2cc3cc(O)ccc3o2)cc1
15 | 530 | COc1ccc2cc(/C=C/c3ccc(N(C)C)c(OC)c3)oc2c1
16 | 160 | COc1ccc2oc(/C=C/c3ccc(N(C)C)c(OC)c3)cc2c1
17 | 130 | Cc1ccc2oc(/C=C/c3ccc(N(C)C)cc3)cc2c1
18 | 810 | COc1ccc2oc(/C=C/c3ccc(N(C)C)cc3)cc2c1
19 | 80 | CNc1ccc(/C=C/c2cc3cc(OC)ccc3o2)cc1
20 | 470 | CN(C)c1ccc(/C=C/c2cc3cc(Br)ccc3o2)cc1
21 | 170 | CN(C)c1ccc(/C=C/c2cc3cc(I)ccc3o2)cc1
22 | 200 | CN(C)c1ccc(/C=C/c2cc3cc(Cl)ccc3o2)cc1
23 | 70 | COc1ccc2cc(/C=C/c3ccc(N(C)C)cc3)oc2c1
